# Source: patent publication US8778643B2, “Methods for increasing lipid levels and producing triacylglycerols in algae” (priority 2012, dated 2014)
# Values joined by “and” are separate entries in the source; they are usually repeats but may differ in a detail not shown here. Equal values may be shown once. Read-outs that look alike come from different tables or passages of the source.
# Tests used:
# [1] = test system: Nannochloropsis oculata; details: for Nile Red Fluorescence % Increase: compounds tested at 200 nM, initial screening, p<0.05; for effect on lipid production / lipid levels: microplate assay, multiple concentrations; for increase in lipid levels (Nile Red): lower concentrations, >0.040 nM
# Experimental: (§1) Stock cultures were aerated by stirring with bubbling air (homemade manifold with Petco air pump, 2-4% CO2) or by orbital shaking (Thermo Scientific MAXQ 2000) at a constant speed of 150 rpm at 22±3° C. with a 16:8 hour light/dark cycle. Stocks were kept at stationary phase for use. Algae were prepared as dictated by culture center.
# (§2) Compounds were selected based on reported biological activity in non-microalgae organisms. To ensure that compounds retained their quality, they were stored under advised conditions after purchasing from the manufacturer. Solutions of all assay compounds were prepared as 10 mM stock solutions by dissolving in DMSO in 2-dram amber vials and then stored in darkness −20° C. 96-well PCR plates were used to create a stock plate layout that was then transferred to the algae microplates. A plate map was used to distribute each compound to a well based on molecule name, collection number, and CAS number. For 20 μM and 200 nM assay plates, 10 mM compound stock in DMSO was diluted into plate maps of 5 mM and 50 μM assay stocks, respectively.
# (§3) All materials for assay experiments were autoclaved before each use to maintain axenic algae cultures. Algae species were checked for homogeneity using a TS-100 light microscope (Nikon, Japan). […] Diluted stock solutions were made immediately prior to use for consistency and optimal plate growth. Cell density was measured on a Thermo Scientific Genesys 10S Vis Spectrophotometer (ThermoFisher, San Jose), using a 1 mL cuvette at 680 nm.
# (§4) Plates were originally run in triplicate, before replicates were increased to quadruplicate, along with a separate control plate to compare growth. Due to extensive evaporation in exterior wells over time, our unique algae plate layout was designed to use the 60 interior wells out of 96 wells for the experiment. The 36 outer wells were filled with Millipore water and media to prevent evaporation and edge effects in the inner algae wells, as well as serve as blanks. The 60 wells with algae contained a total volume of 251 μL (100 μL of media+DMSO compound stock +150 μL dilute algae stock). For 20 μM and 200 nM assay plates, 10 mM compound stock in DMSO is diluted into plate maps of 5 mM and 50 μM assay stocks, respectively. […] Plates were parafilmed during growth to limit the amount of evaporation that can occur. Plates were numbered, and numerically ordered to ensure they got the same shaker space.
# (§5) The shakers are kept at a constant shaking of 150 rpm. Ambient temperature is 22±3° C.
# [2] = test system: Phaeodactylum tricornutum; assay: Microplate assay: growth (absorbance 680 nm) and intracellular lipids (Nile Red fluorescence); assay type: cell-based; details: for effect on lipid production / lipid levels: microplate assay, multiple concentrations; for increase in lipid levels: higher concentrations
# [3] = test system: Nannochloropsis salina; details: for % Lipid increase based on Nile red fluorescence intensity / % Increase based on Nile Red Fluorescence Intensity / % Inc: N. salina; for % Lipid increase based on Nile red fluorescence intensity: DMSO, t=day 0; for % Increase based on Nile Red Fluorescence Intensity: added t=day 0; for % Inc: increase of lipid production; for effect on lipid production / lipid levels: microplate assay, multiple concentrations
# Experimental: as §1, §2, §3, §4, §5
# [4] = test system: Nannochloris sp.; assay: Microplate assay: growth (absorbance 680 nm) and intracellular lipids (Nile Red fluorescence); assay type: cell-based; details: for effect on lipid production / lipid levels: microplate assay, multiple concentrations; for Nile Red Fluorescence % Increase: Nannochloris sp., compounds tested at 20 μM, initial screening, p<0.05
# [5] = test system: Nannochloropsis oculata; assay: Lipid composition of batch culture extracts (fatty acid saturation / PUFA by 1H NMR, MALDI-TOF, GC/MS); assay type: cell-based; details: for SFAs (% of total lipids) / n3 PUFAs (% of UFAs) / All other PUFAs and MUFAs (% of UFAs) / UFAs (% of total lipids): 1H NMR; for SFAs (% of total lipids): Normal 24; for n3 PUFAs (% of UFAs): Normal 37; for All other PUFAs and MUFAs (% of UFAs): Normal 63; for UFAs (% of total lipids): Normal 76
# [6] = test system: Phaeodactylum tricornutum; assay: 500 mL batch culture: growth, dry weight and lipid extract (gravimetric); assay type: cell-based; details: P. tricornutum, 500 mL culture, 76 pM
# Experimental: (§6) Batch cultures were grown in 500 mL Pyrex media bottles with stirring and air bubbling (homemade manifold with Petco air pump, 2-4% CO2). Incoming air was sterile filtered by Polyvent 4 disposable filters (Whatman, Kent, UK). […] To minimize bacterial contamination, all equipment and materials were autoclaved and media was added to flask in a Purifier Vertical Clean bench (Labconco, Kansas City, Mo.). […] The amount of DMSO is standardized for all experiments to 0.4%.
# (§7) For all compound cultures, the 2 mL DMSO stock solution was added to media (without algae) first and mixed well. Control cultures were grown without DMSO. DMSO controls consisted of 0.04-1.0% DMSO. After the addition of algae and media, the container was plugged with a bug stopper vented closure cap and mixed thoroughly. Absorbance is measured immediately for Day 0 analysis. Afterward, absorbance was measured every 1-2 days with a cuvette (1 mL volume) on the Thermo Scientific Genesys 10S V is Spectrophotometer (ThermoFisher, San Jose) at 680 nm.
# (§8) Batch cultures were also repeated in triplicate and compared to a control culture grown at the same time. Algae were harvested and lipids were extracted for gravimetric analysis.
# (§9) The nonpolar algal extracts were harvested from 500 mL cultures when indicated on growth curves, a minimum of 3 days into stationary phase.
# (§10) Cell density was monitored by measuring absorbance at 680 nm every 1-2 days.
# (§11) 500-mL cultures were harvested 6 days into stationary phase based on absorbance values. Cells were concentrated by centrifugation and lyophilization to remove water. Nonpolar lipids were extracted by sonication and solvent (chloroform-methanol and PBS buffer). […] Changes in lipid levels for batch cultures were determined by crude lipid extract mass.
# [7] = test system: microalgae; assay: Microplate assay (growth, Nile Red lipids), algae strain not stated; details: added in the initial phase, <1 μM, greater than 1 μM
# [8] = test system: Nannochloropsis oculata; assay: 500 mL batch culture: growth, dry weight and lipid extract (gravimetric); assay type: cell-based
# Experimental: as §6, §7, §8, §9, §10, §11
# [9] = test system: Nannochloris sp.; assay: as above; assay type: cell-based; details: for Lipid productivity / Change in Lipids / Specific Growth Rate: Nannochloris sp., 500 mL culture, 4 nM; for Change in Lipids: gravimetric, relative to averaged control without DMSO; for Specific Growth Rate: mid-exponential growth phase
# Experimental: as §6, §7, §8, §9, §10, §11
# [10] = 200 nM, initial microplate screen, relative to control
# [11] = 20 μM, initial microplate screen, relative to control
# [12] = 40 μM, initial microplate screen, relative to control
compound,measurement,setting,value
"COc1cc(C[C@H]2C(=O)OC[C@@H]2Cc2ccc(OC)c(OC)c2)ccc1O [Arctigenin, (3R,4R)-4-[(3,4-dimethoxyphenyl)methyl]-3-[(4-hydroxy-3-methoxyphenyl)methyl]-2-tetrahydrofuranone]",Nile Red Fluorescence % Increase,[1]; N. oculata,152.2%
same,% Lipid increase based on Nile red fluorescence intensity,"[2]; P. tricornutum, 41.2 nM, DMSO, t=day 0",61%
same,% Increase based on Nile Red Fluorescence Intensity,"[2]; P. tricornutum, 41.2 nM, DMSO delivery, added t=day 0",61%
same,% Lipid increase based on Nile red fluorescence intensity,[3]; 370.4 nM,64%
same,% Increase based on Nile Red Fluorescence Intensity,"[3]; 13 nM, DMSO delivery",59%
same,% Increase based on Nile Red Fluorescence Intensity,"[3]; 370.4 nM, DMSO delivery",64%
same,Absorbance (percent increase),[4]; [10],−3.4%
same,Nile Red percent increase,[4]; [10],66.0%
same,Absorbance (percent increase),[4]; [11],−5.4%
same,Nile Red percent increase,[4]; [11],79.0%
"Oc1cc(O)c2c(c1)O[C@H](c1ccc(O)c(O)c1)[C@H](O)C2 [(−)-epicatechin, (−)-Epicatechin]",effect on lipid production / lipid levels,[1],lipid production increased
same,effect on lipid production / lipid levels,[2],lipid production increased
same,% Inc,[3]; best conc. 2.4 nM,147.90%
same,effect on lipid production / lipid levels,[3],lipid production increased
same,effect on lipid production / lipid levels,[4],lipid production increased
O=C(O)O [Bicarbonate],MUFAs (%),[5],13%
same,PUFAs (%),[5],87%
same,SFAs (%),[5],0%
same,n3 PUFAs (%),[5],20%
"Cc1cc2c(C(C)C)c(O)c(O)c(C=O)c2c(O)c1-c1c(C)cc2c(C(C)C)c(O)c(O)c(C=O)c2c1O [Gossypol, 2,2′-bis-(Formyl-1,6,7-trihydroxy-5-isopropyl-3-methylnaphthalene)]",increase in lipid production,"[2]; 0.0757 nM, DMSO delivery",> 250%
same,Nile Red percent increase,"[2]; 0.0757 nM, dose-response microplate screen",111%
same,% increase (lipid production),[2]; 0.0252-165.6 nM,5-283%
same,optimal effective concentration (lipid production),[2]; DMSO delivery,0.0757 nM
same,Lipid productivity,[6],5.6 ± 1.9 mgL^−1day^−1
same,Lipid content,[6]; dried lipid extract per dry biomass,24.4 ± 2.7 % w/w
same,Change in Lipids,"[6]; gravimetric, relative to averaged control without DMSO",27%
same,Specific Growth Rate,[6]; mid-exponential growth phase,0.21 ± 0.05 day⁻¹
same,% increase (lipid production),[3]; 0.0757-6.13 nM (H2O),1-27(H2O) %
same,% increase (lipid production),"[3]; 0.0757-55.2 nM, DMSO delivery",8-81%
same,% Lipid increase based on Nile red fluorescence intensity,[3]; 6.13 nM,103%
same,% Increase based on Nile Red Fluorescence Intensity,"[3]; 6.13 nM, DMSO delivery",103%
same,optimal effective concentration (lipid production),[3]; lipoxygenase inhibitor microplate screen,6 nM
"CC1CC(C)C(=O)C(C(O)CC2CC(=O)NC(=O)C2)C1 (centres unmarked) [Cycloheximide, 3-[2-(3,5-Dimethyl-2-oxocyclohexyl)-2-hydroxyethyl]glutarimide]",Nile Red percent increase,"[1]; 4.6-41.2 nM, dose-response microplate screen",87-96%
same,Nile Red Fluorescence % Increase,[1]; N. oculata,137.9%
same,% Lipid increase based on Nile red fluorescence intensity,"[2]; P. tricornutum, 400 nM, added at exponential phase, t=day 7",408%
same,% Increase based on Nile Red Fluorescence Intensity,"[2]; P. tricornutum, 400 nM, added during exponential phase",408%
same,SFAs (% of total lipids),[5]; 40 nM (exponential),39 % of total lipids
same,n3 PUFAs (% of UFAs),[5]; 40 nM (exponential),33 % of UFAs
same,All other PUFAs and MUFAs (% of UFAs),[5]; 40 nM (exponential),67 % of UFAs
same,UFAs (% of total lipids),[5]; 40 nM (exponential),61 % of total lipids
same,effect on lipid levels,[7],minimal increase in lipid levels
same,effect on cell growth,[7]; all four species,inhibitory effect on cell growth
same,Absorbance (percent increase),[4]; [10],−12.4%
same,Nile Red percent increase,[4]; [10],178.1%
"OCC(O)CO [Glycerol, propane-1,2,3-triol]",SFAs (% of total lipids),[5]; 11 mM,39 % of total lipids
same,n3 PUFAs (% of UFAs),[5]; 11 mM,16 % of UFAs
same,All other PUFAs and MUFAs (% of UFAs),[5]; 11 mM,84 % of UFAs
same,UFAs (% of total lipids),[5]; 11 mM,61 % of total lipids
same,SFAs (%),"[5]; N. oculata, 1 g/L, n=1, Normal 0 ± 1",30%
same,MUFAs (%),"[5]; N. oculata, 1 g/L, n=1, Normal 4 ± 7",33%
same,n3 PUFAs (%),"[5]; N. oculata, 1 g/L, n=1, Normal 28 ± 4",10%
same,PUFAs (%),"[5]; N. oculata, 1 g/L, n=1, Normal 96 ± 7",38%
"Oc1cc(O)c2c(c1)O[C@H](c1cc(O)c(O)c(O)c1)[C@H](O)C2 [(−)-epigallocatechin, (2R,3R)-2-(3,4,5-trihydroxyphenyl)-3,4-dihydro-2H-chromene-3,5,7-triol]",effect on lipid production / lipid levels,[1],reduction in lipids
same,effect on lipid production / lipid levels,[2],reduction in lipids
same,% Inc,[3]; best conc. 39 nM,216.15%
same,effect on lipid production / lipid levels,[3],reduction in lipids
same,effect on lipid production / lipid levels,[4],reduction in lipids
"Oc1ccc(/C=C/c2cc(O)cc(O)c2)cc1 [Resveratrol, 5-[(E)-2-(4-hydroxyphenyl)ethenyl]benzene-1,3-diol]",Nile Red Fluorescence % Increase,[1]; N. oculata,120.4%
same,% Lipid increase based on Nile red fluorescence intensity,"[2]; P. tricornutum, 10 nM, DMSO, t=day 0",61%
same,% Increase based on Nile Red Fluorescence Intensity,"[2]; P. tricornutum, 10 nM, DMSO delivery, added t=day 0",61%
same,% Inc,[3]; best conc. 10 nM,272.72%
same,Nile Red Fluorescence % Increase,[4],53.3%
O=C([O-])O.[Na+] [NaHCO3],Absorbance at harvest,[8],2.373 ± 0.217
same,Dry weight,[8],371 ± 117.8
same,Extract Weight,[8],93.5 ± 34.0
"Oc1ccc(-c2nc(-c3ccncc3)c(-c3ccc(F)cc3)[nH]2)cc1 [SB202190, 4-(4-Flurophenyl)-2-(4-hydroxyphenyl)-5-(4-pyridyl)-1H-imidazole]",% Lipid increase based on Nile red fluorescence intensity,"[1]; N. oculata, 400 fM, added at exponential phase, t=day 7",95%
same,% Increase based on Nile Red Fluorescence Intensity,"[1]; N. oculata, 400 fM, added during exponential phase",95%
same,increase in lipid levels (Nile Red),[1]; compound added at t=day 0,45%
same,increase in lipid levels (Nile Red),[1]; compound added in exponential growth phase (Day 7),95%
same,Absorbance (percent increase),[2]; [12],+4.26%
same,Nile Red percent increase,[2]; [12],112.4%
same,increase in lipid levels,[2]; DMSO as delivery agent,26%
same,Nile Red Fluorescence % Increase,"[2]; P. tricornutum, compounds tested at 40 μM, initial screening, p<0.05",115.0%
same,increase in lipid levels,[2]; water as delivery agent,99%
same,Nile Red percent increase,"[4]; 123-457 pM, dose-response microplate screen",103-175%
same,Nile Red Fluorescence % Increase,[4],54.6% and 28.8%
same,Lipid productivity,[9],3.0 ± 1.7 mgL^−1day^−1
same,Lipid productivity,[9]; exponential addition,4.0 ± 1.6 mgL^−1day^−1
same,Change in Lipids,[9]; exponential addition,38%
same,Specific Growth Rate,[9]; exponential addition,0.15 ± 0.08 day⁻¹
same,Change in Lipids,[9],3%
same,Specific Growth Rate,[9],0.17 ± 0.02 day⁻¹
same,increase in lipid levels,"[9]; batch culture, added during the exponential growth phase",38%
